Measurements: the NIST ThermoML archive (doi:10.1016/j.tca.2012.08.011)

Test: xn = mol fraction of the nth substance listed
Conditions: 101 kPa, Liquid; for speed of sound: Linear variable-path acoustic interferometer; for mass density: Vibrating tube method

NC1CCCCC1 [cyclohexylamine] + c1ccccc1
Conditions	mass density [kg/m3]	speed of sound [m/s]
293.15 K, x1 = 0.0621	877.45	1328
293.15 K, x1 = 0.0938	876.73	1331
293.15 K, x1 = 0.1434	875.68	1335.6
293.15 K, x1 = 0.1546	875.47	1336.6
293.15 K, x1 = 0.2031	874.52	1341.3
293.15 K, x1 = 0.2475	873.73	1345.8
293.15 K, x1 = 0.2972	872.9	1350.9
293.15 K, x1 = 0.3472	872.15	1356.1
293.15 K, x1 = 0.3945	871.5	1361.2
293.15 K, x1 = 0.4786	870.45	1370.2
293.15 K, x1 = 0.4948	870.28	1372.1
293.15 K, x1 = 0.5013	870.2	1372.6
293.15 K, x1 = 0.5389	869.83	1376.9
293.15 K, x1 = 0.5396	869.83	1377
293.15 K, x1 = 0.5419	869.8	1377.1
293.15 K, x1 = 0.5927	869.3	1382.8
293.15 K, x1 = 0.6428	868.89	1388.4
293.15 K, x1 = 0.6927	868.55	1394.2
293.15 K, x1 = 0.7465	868.2	1400.3
293.15 K, x1 = 0.7962	867.93	1405.9
293.15 K, x1 = 0.8474	867.74	1411.9
293.15 K, x1 = 0.897	867.61	1418
293.15 K, x1 = 0.9485	867.49	1424.2
293.15 K, x1 = 1	867.39	1430.5
298.15 K, x1 = 0.0621	872.22	1304.7
298.15 K, x1 = 0.0938	871.52	1307.7
298.15 K, x1 = 0.1434	870.56	1312.3
298.15 K, x1 = 0.1546	870.34	1313.4
298.15 K, x1 = 0.2031	869.46	1318.1
298.15 K, x1 = 0.2475	868.71	1322.7
298.15 K, x1 = 0.2972	867.95	1327.9
298.15 K, x1 = 0.3472	867.25	1333.3
298.15 K, x1 = 0.3945	866.64	1338.4
298.15 K, x1 = 0.4786	865.69	1347.5
298.15 K, x1 = 0.4948	865.5	1349.2
298.15 K, x1 = 0.5013	865.45	1349.9
298.15 K, x1 = 0.5389	865.08	1354.3
298.15 K, x1 = 0.5396	865.08	1354.4
298.15 K, x1 = 0.5419	865.06	1354.6
298.15 K, x1 = 0.5927	864.62	1360.2
298.15 K, x1 = 0.6428	864.23	1365.8
298.15 K, x1 = 0.6927	863.88	1371.8
298.15 K, x1 = 0.7465	863.59	1378
298.15 K, x1 = 0.7962	863.33	1383.7
298.15 K, x1 = 0.8474	863.17	1389.9
298.15 K, x1 = 0.897	863.04	1396
298.15 K, x1 = 0.9485	862.94	1402.4
298.15 K, x1 = 1	862.85	1408.8
303.15 K, x1 = 0.0621	866.94	1281.5
303.15 K, x1 = 0.0938	866.31	1284.3
303.15 K, x1 = 0.1434	865.4	1289.2
303.15 K, x1 = 0.1546	865.2	1290.3
303.15 K, x1 = 0.2031	864.38	1295.1
303.15 K, x1 = 0.2475	863.69	1299.7
303.15 K, x1 = 0.2972	862.98	1305.2
303.15 K, x1 = 0.3472	862.36	1310.6
303.15 K, x1 = 0.3945	861.76	1315.6
303.15 K, x1 = 0.4786	860.88	1325
303.15 K, x1 = 0.4948	860.72	1326.9
303.15 K, x1 = 0.5013	860.67	1327.4
303.15 K, x1 = 0.5389	860.32	1331.8
303.15 K, x1 = 0.5396	860.32	1331.9
303.15 K, x1 = 0.5419	860.3	1332.1
303.15 K, x1 = 0.5927	859.9	1337.9
303.15 K, x1 = 0.6428	859.54	1343.5
303.15 K, x1 = 0.6927	859.24	1349.5
303.15 K, x1 = 0.7465	858.96	1355.6
303.15 K, x1 = 0.7962	858.72	1361.5
303.15 K, x1 = 0.8474	858.58	1367.9
303.15 K, x1 = 0.897	858.47	1374.1
303.15 K, x1 = 0.9485	858.38	1380.5
303.15 K, x1 = 1	858.31	1387.3
308.15 K, x1 = 0.0621	861.67	1258.4
308.15 K, x1 = 0.0938	861.08	1261.5
308.15 K, x1 = 0.1434	860.23	1266.2
308.15 K, x1 = 0.1546	860.04	1267.5
308.15 K, x1 = 0.2031	859.28	1272.5
308.15 K, x1 = 0.2475	858.65	1277.2
308.15 K, x1 = 0.2972	857.99	1282.6
308.15 K, x1 = 0.3472	857.38	1288.1
308.15 K, x1 = 0.3945	856.87	1293.2
308.15 K, x1 = 0.4786	856.07	1302.7
308.15 K, x1 = 0.4948	855.9	1304.6
308.15 K, x1 = 0.5013	855.87	1305.1
308.15 K, x1 = 0.5389	855.55	1309.4
308.15 K, x1 = 0.5396	855.55	1309.5
308.15 K, x1 = 0.5419	855.53	1309.8
308.15 K, x1 = 0.5927	855.17	1315.5
308.15 K, x1 = 0.6428	854.84	1321.3
308.15 K, x1 = 0.6927	854.58	1327.3
308.15 K, x1 = 0.7465	854.32	1333.5
308.15 K, x1 = 0.7962	854.16	1339.7
308.15 K, x1 = 0.8474	853.99	1345.9
308.15 K, x1 = 0.897	853.9	1352.2
308.15 K, x1 = 0.9485	853.83	1359
308.15 K, x1 = 1	853.76	1366
313.15 K, x1 = 0.0621	856.39	1235.4
313.15 K, x1 = 0.0938	855.84	1238.6
313.15 K, x1 = 0.1434	855.11	1243.5
313.15 K, x1 = 0.1546	854.94	1244.6
313.15 K, x1 = 0.2031	854.22	1249.7
313.15 K, x1 = 0.2475	853.65	1254.5
313.15 K, x1 = 0.2972	853.04	1260
313.15 K, x1 = 0.3472	852.51	1265.6
313.15 K, x1 = 0.3945	852.03	1270.9
313.15 K, x1 = 0.4786	851.24	1280.4
313.15 K, x1 = 0.4948	851.15	1282.3
313.15 K, x1 = 0.5013	851.07	1283
313.15 K, x1 = 0.5389	850.78	1287.3
313.15 K, x1 = 0.5396	850.78	1287.4
313.15 K, x1 = 0.5419	850.75	1287.7
313.15 K, x1 = 0.5927	850.43	1293.5
313.15 K, x1 = 0.6428	850.14	1299.4
313.15 K, x1 = 0.6927	849.92	1305.2
313.15 K, x1 = 0.7465	849.68	1311.7
313.15 K, x1 = 0.7962	849.53	1317.8
313.15 K, x1 = 0.8474	849.39	1324.1
313.15 K, x1 = 0.897	849.32	1330.5
313.15 K, x1 = 0.9485	849.27	1337.5
313.15 K, x1 = 1	849.23	1344.5
318.15 K, x1 = 0.0621	851.07	1212.6
318.15 K, x1 = 0.0938	850.53	1215.7
318.15 K, x1 = 0.1434	849.85	1220.9
318.15 K, x1 = 0.1546	849.69	1221.9
318.15 K, x1 = 0.2031	849.06	1227.1
318.15 K, x1 = 0.2475	848.53	1232
318.15 K, x1 = 0.2972	847.99	1237.5
318.15 K, x1 = 0.3472	847.44	1243.2
318.15 K, x1 = 0.3945	847.06	1248.6
318.15 K, x1 = 0.4786	846.39	1258.2
318.15 K, x1 = 0.4948	846.28	1260
318.15 K, x1 = 0.5013	846.24	1260.8
318.15 K, x1 = 0.5389	845.99	1265.3
318.15 K, x1 = 0.5396	845.99	1265.4
318.15 K, x1 = 0.5419	845.99	1265.7
318.15 K, x1 = 0.5927	845.7	1271.5
318.15 K, x1 = 0.6428	845.45	1277.4
318.15 K, x1 = 0.6927	845.29	1283.3
318.15 K, x1 = 0.7465	845.06	1289.9
318.15 K, x1 = 0.7962	844.93	1295.8
318.15 K, x1 = 0.8474	844.84	1302.4
318.15 K, x1 = 0.897	844.74	1308.8
318.15 K, x1 = 0.9485	844.71	1315.9
318.15 K, x1 = 1	844.68	1323.1
323.15 K, x1 = 0.0621	845.7	1190.1
323.15 K, x1 = 0.0938	845.26	1193.2
323.15 K, x1 = 0.1434	844.64	1198.3
323.15 K, x1 = 0.1546	844.5	1199.4
323.15 K, x1 = 0.2031	843.92	1204.6
323.15 K, x1 = 0.2475	843.45	1209.5
323.15 K, x1 = 0.2972	842.96	1215.1
323.15 K, x1 = 0.3472	842.52	1220.9
323.15 K, x1 = 0.3945	842.14	1226.2
323.15 K, x1 = 0.4786	841.55	1236.1
323.15 K, x1 = 0.4948	841.45	1237.9
323.15 K, x1 = 0.5013	841.42	1238.7
323.15 K, x1 = 0.5389	841.19	1243.1
323.15 K, x1 = 0.5396	841.19	1243.2
323.15 K, x1 = 0.5419	841.19	1243.5
323.15 K, x1 = 0.5927	840.94	1249.5
323.15 K, x1 = 0.6428	840.73	1255.5
323.15 K, x1 = 0.6927	840.66	1261.5
323.15 K, x1 = 0.7465	840.41	1268.1
323.15 K, x1 = 0.7962	840.3	1274.1
323.15 K, x1 = 0.8474	840.24	1280.6
323.15 K, x1 = 0.897	840.16	1287.1
323.15 K, x1 = 0.9485	840.16	1294.4
323.15 K, x1 = 1	840.14	1301.8
